Source: the kinase profiling compilation of Christmann-Franck et al. (2016)

Assays:
Experiment in all cases: KINOMEscan competition binding
Details in all cases: compound 10.0 µM
AAK1 (human) = AAK1 (human) (UniProt Q2M2I8)
ACVR1B (human) = ACVR1B (human) (UniProt P36896)
AKT1 (human) = AKT1 (human) (UniProt P31749)
CDC42BPA (human) = CDC42BPA (human) (UniProt Q5VT25)
CDK11B (human) = CDK11B (human) (UniProt P21127)
CDK16 (human) = CDK16 (human) (UniProt Q00536)
CHEK1 (human) = CHEK1 (human) (UniProt O14757)
CHEK2 (human) = CHEK2 (human) (UniProt O96017)
CLK3 (human) = CLK3 (human) (UniProt P49761)
CSNK1A1L (human) = CSNK1A1L (human) (UniProt Q8N752)
DMPK (human) = DMPK (human) (UniProt Q09013)
[1] = system: EGFR (human), P00533 [G719C]
EPHA8 (human) = EPHA8 (human) (UniProt P29322)
EPHB1 (human) = EPHB1 (human) (UniProt P54762)
ERBB4 (human) = ERBB4 (human) (UniProt Q15303)
FGFR1 (human) = FGFR1 (human) (UniProt P11362)
FLT3 (human) = FLT3 (human) (UniProt P36888)
FRK (human) = FRK (human) (UniProt P42685)
HIPK1 (human) = HIPK1 (human) (UniProt Q86Z02)
IRAK4 (human) = IRAK4 (human) (UniProt Q9NWZ3)
MAP3K5 (human) = MAP3K5 (human) (UniProt Q99683)
MAP3K6 (human) = MAP3K6 (human) (UniProt O95382)
MAPK13 (human) = MAPK13 (human) (UniProt O15264)
MARK1 (human) = MARK1 (human) (UniProt Q9P0L2)
MARK4 (human) = MARK4 (human) (UniProt Q96L34)
MET (human) = MET (human) (UniProt P08581)
MYO3B (human) = MYO3B (human) (UniProt Q8WXR4)
PAK3 (human) = PAK3 (human) (UniProt O75914)
PIM2 (human) = PIM2 (human) (UniProt Q9P1W9)
PKN2 (human) = PKN2 (human) (UniProt Q16513)
PRKAA1 (human) = PRKAA1 (human) (UniProt Q13131)
PRKACA (human) = PRKACA (human) (UniProt P17612)
RIOK3 (human) = RIOK3 (human) (UniProt O14730)
RIPK2 (human) = RIPK2 (human) (UniProt O43353)
RPS6KA4 KD2 (human) = RPS6KA4 KD2 (human) (UniProt O75676)
STK10 (human) = STK10 (human) (UniProt O94804)
STK36 (human) = STK36 (human) (UniProt Q9NRP7)
TAOK1 (human) = TAOK1 (human) (UniProt Q7L7X3)
TESK1 (human) = TESK1 (human) (UniProt Q15569)
TTK (human) = TTK (human) (UniProt P33981)

Chain of CSNK1A1L (human) (Q8N752 whole entry, looked up): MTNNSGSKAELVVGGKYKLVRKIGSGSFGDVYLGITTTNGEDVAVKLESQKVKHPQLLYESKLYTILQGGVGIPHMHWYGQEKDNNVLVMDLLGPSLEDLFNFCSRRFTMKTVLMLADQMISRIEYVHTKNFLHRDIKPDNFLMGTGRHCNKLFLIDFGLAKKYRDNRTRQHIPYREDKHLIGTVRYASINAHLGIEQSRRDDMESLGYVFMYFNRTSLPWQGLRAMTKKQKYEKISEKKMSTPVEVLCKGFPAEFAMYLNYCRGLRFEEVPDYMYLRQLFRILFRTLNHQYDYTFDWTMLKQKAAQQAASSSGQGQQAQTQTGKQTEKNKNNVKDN
Chain of AAK1 (human) (Q2M2I8 whole entry, looked up): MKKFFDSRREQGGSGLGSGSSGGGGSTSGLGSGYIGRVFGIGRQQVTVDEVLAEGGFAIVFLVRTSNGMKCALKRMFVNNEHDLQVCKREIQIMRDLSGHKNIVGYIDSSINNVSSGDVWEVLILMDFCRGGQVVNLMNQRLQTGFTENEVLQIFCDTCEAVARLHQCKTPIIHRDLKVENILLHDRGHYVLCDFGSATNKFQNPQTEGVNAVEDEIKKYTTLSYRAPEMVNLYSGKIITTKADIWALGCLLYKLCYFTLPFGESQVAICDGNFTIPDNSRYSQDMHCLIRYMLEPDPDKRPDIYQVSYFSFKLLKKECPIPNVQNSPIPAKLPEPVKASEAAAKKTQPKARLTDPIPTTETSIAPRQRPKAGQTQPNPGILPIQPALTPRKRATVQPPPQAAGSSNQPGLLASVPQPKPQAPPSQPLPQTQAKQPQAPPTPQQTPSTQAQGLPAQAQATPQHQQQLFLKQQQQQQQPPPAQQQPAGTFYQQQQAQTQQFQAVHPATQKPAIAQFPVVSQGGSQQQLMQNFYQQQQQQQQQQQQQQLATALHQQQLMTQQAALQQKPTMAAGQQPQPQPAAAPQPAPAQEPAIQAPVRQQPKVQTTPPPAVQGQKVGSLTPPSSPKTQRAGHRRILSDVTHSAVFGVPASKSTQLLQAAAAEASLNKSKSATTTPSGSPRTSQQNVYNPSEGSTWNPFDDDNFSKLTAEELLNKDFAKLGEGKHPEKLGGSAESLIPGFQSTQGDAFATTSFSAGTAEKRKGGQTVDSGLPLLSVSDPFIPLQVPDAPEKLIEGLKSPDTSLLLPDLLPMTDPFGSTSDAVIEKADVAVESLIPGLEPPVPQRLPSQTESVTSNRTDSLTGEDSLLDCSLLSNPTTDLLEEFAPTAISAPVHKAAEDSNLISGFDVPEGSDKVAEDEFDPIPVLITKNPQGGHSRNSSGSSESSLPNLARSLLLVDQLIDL
Chain of HIPK1 (human) (Q86Z02 whole entry, looked up): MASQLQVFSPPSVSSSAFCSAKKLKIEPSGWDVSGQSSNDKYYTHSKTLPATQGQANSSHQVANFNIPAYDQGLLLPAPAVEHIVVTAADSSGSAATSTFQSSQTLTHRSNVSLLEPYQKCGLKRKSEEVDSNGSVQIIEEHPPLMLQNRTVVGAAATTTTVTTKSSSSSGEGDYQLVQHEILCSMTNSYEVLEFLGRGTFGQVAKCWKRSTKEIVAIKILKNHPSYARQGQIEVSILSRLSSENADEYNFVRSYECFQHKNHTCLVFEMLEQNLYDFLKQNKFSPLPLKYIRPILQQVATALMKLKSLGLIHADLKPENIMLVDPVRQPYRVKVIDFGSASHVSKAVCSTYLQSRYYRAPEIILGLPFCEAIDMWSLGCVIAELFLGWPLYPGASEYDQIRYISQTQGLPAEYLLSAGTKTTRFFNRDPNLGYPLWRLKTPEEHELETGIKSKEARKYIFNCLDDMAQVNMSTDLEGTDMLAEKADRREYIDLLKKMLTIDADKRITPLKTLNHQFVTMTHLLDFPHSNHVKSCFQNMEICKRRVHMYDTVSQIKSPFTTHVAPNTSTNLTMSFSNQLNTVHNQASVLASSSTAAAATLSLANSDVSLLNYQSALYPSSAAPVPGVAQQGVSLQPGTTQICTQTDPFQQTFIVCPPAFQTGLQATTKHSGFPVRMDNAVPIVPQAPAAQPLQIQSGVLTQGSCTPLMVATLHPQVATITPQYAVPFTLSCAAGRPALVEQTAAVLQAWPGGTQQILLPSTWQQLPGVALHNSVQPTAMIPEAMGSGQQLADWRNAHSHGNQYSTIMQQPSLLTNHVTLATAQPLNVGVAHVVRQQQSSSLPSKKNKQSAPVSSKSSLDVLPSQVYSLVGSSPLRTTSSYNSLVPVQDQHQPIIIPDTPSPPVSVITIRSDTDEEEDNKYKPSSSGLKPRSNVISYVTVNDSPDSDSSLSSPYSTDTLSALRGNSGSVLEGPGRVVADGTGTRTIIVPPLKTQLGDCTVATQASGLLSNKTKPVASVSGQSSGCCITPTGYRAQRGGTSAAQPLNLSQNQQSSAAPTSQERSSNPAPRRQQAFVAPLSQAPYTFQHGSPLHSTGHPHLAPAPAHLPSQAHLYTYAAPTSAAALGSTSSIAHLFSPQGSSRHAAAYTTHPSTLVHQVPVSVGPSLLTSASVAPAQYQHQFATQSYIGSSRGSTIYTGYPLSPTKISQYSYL
Chain of DMPK (human) (Q09013 whole entry, looked up): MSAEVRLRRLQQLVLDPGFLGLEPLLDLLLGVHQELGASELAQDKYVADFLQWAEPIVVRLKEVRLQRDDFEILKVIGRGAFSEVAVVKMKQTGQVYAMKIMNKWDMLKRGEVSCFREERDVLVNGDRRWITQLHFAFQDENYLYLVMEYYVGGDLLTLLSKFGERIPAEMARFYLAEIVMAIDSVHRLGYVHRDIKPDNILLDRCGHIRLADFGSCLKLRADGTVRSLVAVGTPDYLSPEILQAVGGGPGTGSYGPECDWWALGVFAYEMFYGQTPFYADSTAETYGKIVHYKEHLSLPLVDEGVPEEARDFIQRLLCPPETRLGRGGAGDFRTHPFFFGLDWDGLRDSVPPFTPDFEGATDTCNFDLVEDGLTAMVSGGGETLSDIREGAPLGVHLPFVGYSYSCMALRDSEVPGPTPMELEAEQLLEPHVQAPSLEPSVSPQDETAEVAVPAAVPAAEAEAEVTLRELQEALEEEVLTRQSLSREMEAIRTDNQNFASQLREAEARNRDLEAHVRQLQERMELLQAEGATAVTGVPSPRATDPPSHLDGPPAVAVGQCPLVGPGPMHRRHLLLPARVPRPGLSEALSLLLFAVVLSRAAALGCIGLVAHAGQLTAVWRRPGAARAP
Chain of FGFR1 (human) (P11362 whole entry, looked up): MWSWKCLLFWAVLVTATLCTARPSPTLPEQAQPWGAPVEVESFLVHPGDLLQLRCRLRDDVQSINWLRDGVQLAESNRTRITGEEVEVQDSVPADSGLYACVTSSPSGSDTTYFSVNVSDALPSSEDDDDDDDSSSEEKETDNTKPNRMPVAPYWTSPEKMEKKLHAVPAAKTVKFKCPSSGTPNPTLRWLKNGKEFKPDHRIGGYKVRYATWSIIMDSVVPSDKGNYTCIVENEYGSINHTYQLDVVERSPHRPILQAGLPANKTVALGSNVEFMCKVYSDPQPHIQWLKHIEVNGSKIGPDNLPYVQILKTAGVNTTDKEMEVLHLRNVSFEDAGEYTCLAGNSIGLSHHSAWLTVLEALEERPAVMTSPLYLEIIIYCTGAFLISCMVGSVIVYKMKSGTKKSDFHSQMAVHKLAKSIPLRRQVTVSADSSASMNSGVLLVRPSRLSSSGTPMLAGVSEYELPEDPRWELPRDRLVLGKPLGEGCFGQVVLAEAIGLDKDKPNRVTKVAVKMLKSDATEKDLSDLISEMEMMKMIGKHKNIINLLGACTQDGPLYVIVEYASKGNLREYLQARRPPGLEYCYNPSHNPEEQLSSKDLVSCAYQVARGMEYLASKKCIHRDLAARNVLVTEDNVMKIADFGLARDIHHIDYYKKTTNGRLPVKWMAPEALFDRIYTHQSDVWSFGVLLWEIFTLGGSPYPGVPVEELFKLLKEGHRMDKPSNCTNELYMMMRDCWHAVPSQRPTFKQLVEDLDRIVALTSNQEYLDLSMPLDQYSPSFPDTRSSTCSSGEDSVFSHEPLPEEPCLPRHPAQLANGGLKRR
Chain of EPHB1 (human) (P54762 whole entry, looked up): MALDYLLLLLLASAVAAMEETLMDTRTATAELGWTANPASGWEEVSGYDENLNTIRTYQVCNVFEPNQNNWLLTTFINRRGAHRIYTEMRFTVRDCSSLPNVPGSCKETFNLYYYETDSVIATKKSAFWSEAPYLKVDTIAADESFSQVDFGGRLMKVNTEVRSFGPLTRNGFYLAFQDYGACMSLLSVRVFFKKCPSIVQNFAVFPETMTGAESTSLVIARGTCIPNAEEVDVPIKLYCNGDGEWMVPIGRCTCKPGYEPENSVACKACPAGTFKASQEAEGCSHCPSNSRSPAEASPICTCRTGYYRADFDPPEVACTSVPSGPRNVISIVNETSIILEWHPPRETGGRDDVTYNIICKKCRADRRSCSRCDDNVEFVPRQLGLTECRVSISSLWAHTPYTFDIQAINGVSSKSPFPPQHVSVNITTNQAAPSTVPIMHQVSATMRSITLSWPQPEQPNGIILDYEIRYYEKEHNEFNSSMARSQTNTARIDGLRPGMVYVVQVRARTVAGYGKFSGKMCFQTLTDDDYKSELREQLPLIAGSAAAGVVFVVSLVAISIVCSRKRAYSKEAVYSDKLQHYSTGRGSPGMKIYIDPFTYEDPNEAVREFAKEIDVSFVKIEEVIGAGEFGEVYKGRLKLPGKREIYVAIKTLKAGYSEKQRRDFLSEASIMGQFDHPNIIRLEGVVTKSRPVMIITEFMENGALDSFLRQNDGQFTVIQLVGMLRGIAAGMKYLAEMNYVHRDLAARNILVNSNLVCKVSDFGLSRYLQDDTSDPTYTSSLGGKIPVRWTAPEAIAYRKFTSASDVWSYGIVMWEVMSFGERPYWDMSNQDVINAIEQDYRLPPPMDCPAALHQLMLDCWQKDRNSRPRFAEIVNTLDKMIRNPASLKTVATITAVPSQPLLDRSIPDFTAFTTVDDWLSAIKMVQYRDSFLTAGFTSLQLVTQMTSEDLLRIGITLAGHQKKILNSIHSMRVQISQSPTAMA

| Structure (SMILES) | kinase still bound, per cent of control (AAK1 (human)) | kinase still bound, per cent of control (ACVR1B (human)) | kinase still bound, per cent of control (AKT1 (human)) | kinase still bound, per cent of control (CDC42BPA (human)) | kinase still bound, per cent of control (CDK11B (human)) | kinase still bound, per cent of control (CDK16 (human)) | kinase still bound, per cent of control (CHEK1 (human)) | kinase still bound, per cent of control (CHEK2 (human)) | kinase still bound, per cent of control (CLK3 (human)) | kinase still bound, per cent of control (CSNK1A1L (human)) | kinase still bound, per cent of control (DMPK (human)) | kinase still bound, per cent of control [1] | kinase still bound, per cent of control (EPHA8 (human)) | kinase still bound, per cent of control (EPHB1 (human)) | kinase still bound, per cent of control (ERBB4 (human)) | kinase still bound, per cent of control (FGFR1 (human)) | kinase still bound, per cent of control (FLT3 (human)) | kinase still bound, per cent of control (FRK (human)) | kinase still bound, per cent of control (HIPK1 (human)) | kinase still bound, per cent of control (IRAK4 (human)) | also measured |
| --- | --- | --- | --- | --- | --- | --- | --- | --- | --- | --- | --- | --- | --- | --- | --- | --- | --- | --- | --- | --- | --- |
| CCCS(=O)(=O)Nc1ccc(F)c(C(=O)c2c[nH]c3ncc(Cl)cc23)c1F | 84% | 98% | 100% | 96% | 99% | 68% | 82% | 64% | 80% | 100% | 100% | 50% | 95% | 100% | 73% | 34% | 14% | 19% | 36% | 86% | kinase still bound, per cent of control (MAP3K5 (human)): 74%; kinase still bound, per cent of control (MAP3K6 (human)): 96%; kinase still bound, per cent of control (MAPK13 (human)): 85%; kinase still bound, per cent of control (MARK1 (human)): 74%; kinase still bound, per cent of control (MARK4 (human)): 72%; kinase still bound, per cent of control (MET (human)): 77%; kinase still bound, per cent of control (MYO3B (human)): 47%; kinase still bound, per cent of control (PAK3 (human)): 34%; kinase still bound, per cent of control (PIM2 (human)): 80%; kinase still bound, per cent of control (PKN2 (human)): 100%; kinase still bound, per cent of control (PRKAA1 (human)): 64%; kinase still bound, per cent of control (PRKACA (human)): 94%; kinase still bound, per cent of control (RIOK3 (human)): 100%; kinase still bound, per cent of control (RIPK2 (human)): 8.3%; kinase still bound, per cent of control (RPS6KA4 KD2 (human)): 69%; kinase still bound, per cent of control (STK10 (human)): 68%; kinase still bound, per cent of control (STK36 (human)): 18%; kinase still bound, per cent of control (TAOK1 (human)): 52%; kinase still bound, per cent of control (TESK1 (human)): 13%; kinase still bound, per cent of control (TTK (human)): 60% |
| C=CC(=O)Nc1ccc(C(=O)c2sc(Nc3ccc(N4CCN(C)CC4)cc3OC)nc2N)cc1 | 11% | 100% | 100% | 100% | 89% | 67% | 73% | 26% | 8.9% | 78% | 12% | 3% | 88% | 98% | 61% | 38% | 73% | 48% | 15% | 92% | kinase still bound, per cent of control (MAP3K5 (human)): 100%; kinase still bound, per cent of control (MAP3K6 (human)): 84%; kinase still bound, per cent of control (MAPK13 (human)): 100%; kinase still bound, per cent of control (MARK1 (human)): 93%; kinase still bound, per cent of control (MARK4 (human)): 85%; kinase still bound, per cent of control (MET (human)): 83%; kinase still bound, per cent of control (MYO3B (human)): 83%; kinase still bound, per cent of control (PAK3 (human)): 100%; kinase still bound, per cent of control (PIM2 (human)): 100%; kinase still bound, per cent of control (PKN2 (human)): 100%; kinase still bound, per cent of control (PRKAA1 (human)): 100%; kinase still bound, per cent of control (PRKACA (human)): 100%; kinase still bound, per cent of control (RIOK3 (human)): 61%; kinase still bound, per cent of control (RIPK2 (human)): 100%; kinase still bound, per cent of control (RPS6KA4 KD2 (human)): 0.2%; kinase still bound, per cent of control (STK10 (human)): 100%; kinase still bound, per cent of control (STK36 (human)): 90%; kinase still bound, per cent of control (TAOK1 (human)): 32%; kinase still bound, per cent of control (TESK1 (human)): 100%; kinase still bound, per cent of control (TTK (human)): 0.7% |
| N#Cc1cc(-c2ccnc(Nc3ccc(-n4cnc(-c5cccnc5)n4)cc3)n2)cc(N2CCOCC2)c1 | 5.4% | 76% | 100% | 68% | 32% | 6.8% | 100% | 100% | 59% | 80% | 85% | 71% | 93% | 90% | 91% | 93% | 18% | 92% | 2.2% | 100% | kinase still bound, per cent of control (MAP3K5 (human)): 100%; kinase still bound, per cent of control (MAP3K6 (human)): 88%; kinase still bound, per cent of control (MAPK13 (human)): 61%; kinase still bound, per cent of control (MARK1 (human)): 84%; kinase still bound, per cent of control (MARK4 (human)): 78%; kinase still bound, per cent of control (MET (human)): 24%; kinase still bound, per cent of control (MYO3B (human)): 100%; kinase still bound, per cent of control (PAK3 (human)): 100%; kinase still bound, per cent of control (PIM2 (human)): 100%; kinase still bound, per cent of control (PKN2 (human)): 44%; kinase still bound, per cent of control (PRKAA1 (human)): 84%; kinase still bound, per cent of control (PRKACA (human)): 89%; kinase still bound, per cent of control (RIOK3 (human)): 3.2%; kinase still bound, per cent of control (RIPK2 (human)): 53%; kinase still bound, per cent of control (RPS6KA4 KD2 (human)): 100%; kinase still bound, per cent of control (STK10 (human)): 39%; kinase still bound, per cent of control (STK36 (human)): 15%; kinase still bound, per cent of control (TAOK1 (human)): 20%; kinase still bound, per cent of control (TESK1 (human)): 54%; kinase still bound, per cent of control (TTK (human)): 73% |
